Test results published in patent publication US10377753B2, “Substituted 4-azaindoles and their use as GluN2B receptor modulators” (Janssen Pharmaceutica NV, priority 2015, dated 2019).

Target: cloned human NR1/NR2B ion channels (Homo sapiens (Human), UniProt Q05586+Q13224)
Assay: HNR2BC: effects of test articles on cloned human NR1/NR2B ion channels expressed in mammalian cells (FLIPR calcium flux)
Type: cell-based
Settings: cloned human NR1/NR2B, Table 5
Outline: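 In a stable Tet-On-induced cell line expressing human GluN1/GluN2B, Calcium 5-loaded cells were preincubated 5 min with compound, then stimulated 5 min with glutamate at ~EC80 plus 10 μM glycine, in pH 7.4 HEPES buffer. FLIPR calcium fluorescence was normalized to control wells.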

Sequence of cloned human NR1/NR2B ion channels (Q13224 27-1484, other chains not shown): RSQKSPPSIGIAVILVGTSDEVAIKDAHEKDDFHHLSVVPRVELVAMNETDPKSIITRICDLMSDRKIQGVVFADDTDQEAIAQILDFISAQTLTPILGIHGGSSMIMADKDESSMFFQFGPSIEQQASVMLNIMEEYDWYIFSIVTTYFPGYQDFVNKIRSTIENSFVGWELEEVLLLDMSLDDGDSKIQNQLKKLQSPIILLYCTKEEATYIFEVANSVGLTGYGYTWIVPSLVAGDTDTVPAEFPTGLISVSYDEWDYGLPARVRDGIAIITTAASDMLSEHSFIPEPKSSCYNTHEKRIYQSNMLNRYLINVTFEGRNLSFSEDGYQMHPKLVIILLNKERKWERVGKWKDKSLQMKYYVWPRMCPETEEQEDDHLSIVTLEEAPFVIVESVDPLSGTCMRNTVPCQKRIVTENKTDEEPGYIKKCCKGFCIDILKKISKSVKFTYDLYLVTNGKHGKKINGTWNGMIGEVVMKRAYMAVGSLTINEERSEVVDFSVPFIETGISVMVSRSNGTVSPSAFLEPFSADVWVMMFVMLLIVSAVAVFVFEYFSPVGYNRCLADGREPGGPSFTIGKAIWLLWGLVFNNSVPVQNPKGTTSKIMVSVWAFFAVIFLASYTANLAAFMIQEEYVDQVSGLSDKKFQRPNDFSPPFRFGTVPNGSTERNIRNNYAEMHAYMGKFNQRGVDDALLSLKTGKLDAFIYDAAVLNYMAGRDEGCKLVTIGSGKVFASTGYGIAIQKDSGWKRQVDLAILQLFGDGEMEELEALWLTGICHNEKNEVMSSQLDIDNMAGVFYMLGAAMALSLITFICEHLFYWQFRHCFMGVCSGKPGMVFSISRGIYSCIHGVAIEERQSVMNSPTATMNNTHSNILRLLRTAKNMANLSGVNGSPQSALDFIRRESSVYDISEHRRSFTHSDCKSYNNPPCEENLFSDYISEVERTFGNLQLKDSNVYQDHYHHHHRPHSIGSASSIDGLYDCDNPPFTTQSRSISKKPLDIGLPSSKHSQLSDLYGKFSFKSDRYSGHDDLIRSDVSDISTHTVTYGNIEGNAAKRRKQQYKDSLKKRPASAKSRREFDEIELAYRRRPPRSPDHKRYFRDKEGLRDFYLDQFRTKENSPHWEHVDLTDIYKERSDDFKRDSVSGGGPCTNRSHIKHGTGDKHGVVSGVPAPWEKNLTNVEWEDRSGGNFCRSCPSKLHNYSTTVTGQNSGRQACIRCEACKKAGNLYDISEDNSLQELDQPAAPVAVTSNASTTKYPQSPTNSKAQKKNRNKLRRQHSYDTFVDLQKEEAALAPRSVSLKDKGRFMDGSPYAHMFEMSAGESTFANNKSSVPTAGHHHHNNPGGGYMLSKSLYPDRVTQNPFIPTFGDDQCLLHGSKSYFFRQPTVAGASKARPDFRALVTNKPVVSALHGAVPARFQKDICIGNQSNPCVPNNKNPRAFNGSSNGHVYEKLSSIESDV

IC50	pIC50	SMILES
631 nM		O=C(Cn1ccc2ncc(-c3ccc(F)c(F)c3F)cc21)N1CCCC1 [Example 120, 1-Pyrrolidin-1-yl-2-[6-(2,3,4-trifluorophenyl)pyrrolo[3,2-b]pyridin-1-yl]ethanone]
63.1 nM		O=C(Cn1ccc2ncc(-c3cc(F)cc(F)c3)cc21)N1CC(F)(F)C1 [Example 121, 1-(3,3-difluoroazetidin-1-yl)-2-[6-(3,5-difluorophenyl)pyrrolo[3,2-b]pyridin-1-yl]ethanone]
39.8 nM		O=C(Cn1ccc2ncc(-c3cc(F)cc(F)c3)cc21)N1CCCC1 [Example 122, 2-[6-(3,5-Difluorophenyl)pyrrolo[3,2-b]pyridin-1-yl]-1-pyrrolidin-1-yl-ethanone]
20 nM		O=C(Cn1ccc2ncc(-c3cc(F)c(F)c(F)c3)cc21)N1CCCC1 [Example 123, 1-Pyrrolidin-1-yl-2-[6-(3,4,5-trifluorophenyl)pyrrolo[3,2-b]pyridin-1-yl]ethanone]
31.6 nM		O=C(Cn1ccc2ncc(-c3cc(F)c(F)c(F)c3)cc21)N1CC(F)(F)C1 [Example 124, 1-(3,3-Difluoroazetidin-1-yl)-2-[6-(3,4,5-trifluorophenyl)pyrrolo[3,2-b]pyridin-1-yl]ethanone]
31.6 nM		O=C(Cn1ccc2ncc(-c3cc(F)cc(F)c3)cc21)N1CCOCC1 [Example 125, 2-[6-(3,5-Difluorophenyl)pyrrolo[3,2-b]pyridin-1-yl]-1-morpholino-ethanone]
100 nM		O=C(Cn1ccc2ncc(-c3ccc(F)c(F)c3F)cc21)N1CCOCC1 [Example 126, 1-Morpholino-2-[6-(2,3,4-trifluorophenyl)pyrrolo[3,2-b]pyridin-1-yl]ethanone]
158 nM		O=C(Cn1ccc2ncc(-c3cc(F)c(F)c(F)c3)cc21)N1CCOCC1 [Example 127, 1-Morpholino-2-[6-(3,4,5-trifluorophenyl)pyrrolo[3,2-b]pyridin-1-yl]ethanone]
63.1 nM		O=C(Cn1ccc2ncc(-c3ccc(F)c(F)c3)cc21)N1CC(F)C1 [Example 128, 2-[6-(3,4-Difluorophenyl)pyrrolo[3,2-b]pyridin-1-yl]-1-(3-fluoroazetidin-1-yl)ethanone]
25.1 nM		O=C(Cn1ccc2ncc(-c3cc(F)cc(F)c3)cc21)N1CC(F)C1 [Example 129, 2-[6-(3,5-Difluorophenyl)pyrrolo[3,2-b]pyridin-1-yl]-1-(3-fluoroazetidin-1-yl)ethanone]
	7.7	Cc1csc(-c2cnc3ccn(Cc4cccnn4)c3c2)c1 [Example 130, 6-(4-Methyl-2-thienyl)-1-(pyridazin-3-ylmethyl)pyrrolo[3,2-b]pyridine]
126 nM		Fc1ccc(-c2cnc3ccn(Cc4cccnn4)c3c2)cc1F [Example 131, 6-(3,4-Difluorophenyl)-1-(pyridazin-3-ylmethyl)pyrrolo[3,2-b]pyridine]
126 nM		Cc1csc(-c2cnc3ccn(CC(=O)N4CCOCC4)c3c2)c1 [Example 132, 2-[6-(4-Methyl-2-thienyl)pyrrolo[3,2-b]pyridin-1-yl]-1-morpholino-ethanone]
79.4 nM		O=C(Cn1ccc2ncc(-c3ccc(F)cc3F)cc21)N1CCC1 [Example 133, 1-(Azetidin-1-yl)-2-[6-(2,4-difluorophenyl)pyrrolo[3,2-b]pyridin-1-yl]ethanone]
31.6 nM		O=C(Cn1ccc2ncc(-c3cccc(F)c3F)cc21)N1CCC1 [Example 134, 1-(Azetidin-1-yl)-2-[6-(2,3-difluorophenyl)pyrrolo[3,2-b]pyridin-1-yl]ethanone]
39.8 nM		O=C(Cn1ccc2ncc(-c3cc(F)ccc3F)cc21)N1CCC1 [Example 135, 1-(Azetidin-1-yl)-2-[6-(2,5-difluorophenyl)pyrrolo[3,2-b]pyridin-1-yl]ethanone]
63.1 nM		O=C(Cn1cc(F)c2ncc(-c3ccc(F)c(F)c3)cc21)C1CC1 [Example 136, 1-Cyclopropyl-2-[6-(3,4-difluorophenyl)-3-fluoro-pyrrolo[3,2-b]pyridin-1-yl]ethanone]
